Measured values as given in patent US20220023271A1, “COMPOSITION FOR PREVENTING OR TREATING CELLULAR SENESCENCE-RELATED DISEASES COMPRISING ZOTAROLIMUS AS ACTIVE INGREDIENT” (RESEARCH COOPERATION FOUNDATION OF YEUNGNAM UNIVERSITY, priority 2018, published 2022).

Experiments:
[1] = tested on: human umbilical vascular endothelial cells (HUVEC); test: SAβG activity staining in senescent vascular endothelial cells; assay type: cell-based; conditions: 4 days
Description: Each cell was treated in a serum-free culture solution containing 0.5 μM doxorubicin for 4 hours. After washing the cells with a serum-free culture solution, the cells were cultured for 4 days in a culture solution containing 10% FBS, and then cellular aging was confirmed by staining with senescence-associated beta galactosidase (SAβG). After dispensing 2×10^5 cells in a 100 mm culture dish, they were cultured in a 37° C., 5% CO2 incubator. When the cells grew to 80-90% in the culture dish, the cells were removed by treatment with trypsin-EDTA, and the number of cells was measured, and the cell population doubling time (PDT) was measured. By successively subculturing the cells in the same process as described above, replication aging was induced. PDT of young fibroblasts was 36 hours, PDT of replicative senescent fibroblasts was 12 days, PDT of young vascular endothelial cells was 24 hours, and PDT of replicative senescent vascular endothelial cells was 7 days. After each sample was dissolved in DMSO, young cells, replicative senescent cells, and premature senescent cells treated with doxorubicin were treated with 100 nM zotarolimus, 100 nM rapamycin, 100 nM ABT263, respectively. After incubation for 4 days in a 37° C., 5% CO2 incubator, the degree of cell growth was confirmed by CCK-8 analysis, the degree of cellular aging was confirmed by senescence-related beta-galactosidase (SAβG) staining, The cells were washed with 1× phosphate buffer solution, and fixed with a phosphate buffer solution containing 3.7% (v/v) paraformaldehyde. After adding 1 mg/ml 5-bromo-4-chloro-3-indolyl-6-D-galactoside, 40 mM citric acid-sodium phosphate (pH 6.0), 5 mM potassium ferricyanide, 5 mM potassium ferrocyanide, 150 mM NaCl, and 2 mM MgCl2 solution, it was reacted at 37° C. for 18 hours. It was stained with eosin as a control stain. Cells stained blue in the cytoplasm were identified using an optical microscope. […]

[2] = tested on: human retinal pigmented epithelial cells (ARPE-19); test: LDH activity analysis in retinal pigmented epithelial cells; assay type: cell-based; conditions: young and senescent retinal pigmented epithelial cells
Description: Cytotoxicity against young and senescent cells was investigated with a lactate dehydrogenase (LDH) activity kit (Dojindo Molecular Technologies Inc.).
Young cells (1×10^3 cells/100 μl/well) or senescent cells (2×10^3 cells/100 μl/well) were dispensed into a 96-well plate, and then cultured overnight in a 37° C., 5% CO2 incubator. Zotarolimus and ABT263 were treated at each concentration, and then incubated for 4 days in a 37° C., 5% CO2 incubator.
After transferring the cell culture solution to a 1.5 ml tube, it was centrifuged at 4° C. and 12,000 rpm. 100 μl of the supernatant was dispensed into a 96-well plate, and 100 μl of the LDH measurement solution was added to each well, followed by reaction in a CO2 incubator for 30 minutes.
50 μl of the LDH reaction stop solution was added, and absorbance was measured at 490 nm using a microplate reader. The level of LDH activity was expressed as a relative value based on the absorbance of the control group treated with only DMSO.

[3] = tested on: human tubular epithelial cell (HK2); test: CCK-8 cell growth analysis in premature senescent HK2 cells; assay type: cell-based; conditions: premature senescent HK2 cells by doxorubicin; 100 nM, 4 days; vs DMSO-treated group
Description: Each cell was treated in a serum-free culture solution containing 0.5 μM doxorubicin for 4 hours. After washing the cells with a serum-free culture solution, the cells were cultured for 4 days in a culture solution containing 10% FBS, and then cellular aging was confirmed by staining with senescence-associated beta galactosidase (SAβG). After each sample was dissolved in DMSO, young cells, replicative senescent cells, and premature senescent cells treated with doxorubicin were treated with 100 nM zotarolimus, 100 nM rapamycin, 100 nM ABT263, respectively. After incubation for 4 days in a 37° C., 5% CO2 incubator, the degree of cell growth was confirmed by CCK-8 analysis, the degree of cellular aging was confirmed by senescence-related beta-galactosidase (SAβG) staining, Young cells (1×10^3 cells/well) or senescent cells (2×10^3 cells/well) were dispensed into a 96-well plate, and cultured overnight in a 37° C., 5% CO2 incubator. Zotarolimus, ABT263 and rapamycin were treated at each concentration, and then incubated for 4 days in a 37° C., 5% CO2 incubator. […] Then, the absorbance was measured at 450 nm using a microplate reader. The degree of cell growth was expressed as a relative value for the absorbance of the control group treated with only DMSO as 100%. […]

[4] = tested on: pulmonary fibrosis induced by bleomycin; test: Lung fibrosis induced by bleomycin in mice; assay type: in vivo, C57BL/6J mice
Description: Animal experiments were conducted with the approval of the Animal Experimental Ethics Committee, Yeungnam University College of Medicine (YUMC-AEC2018-025). After anesthetizing by injecting 2.5% avertin (Avertin; 0.025 ml/g) into the abdominal cavity of 10-week-old C57BL/6J male mice, 2 mU/g of bleomycin was instilled into the bronchi and injected into the lungs.
From 5 days after bleomycin administration, 2.5 μl of 10 mM zotarolimus was diluted in 100 μl phosphate buffer solution at intervals of 3 days and injected intraperitoneally 6 times (Zota group).
Three mice were used for each group, and lungs were excised by sacrifice 22 days after bleomycin injection and fixed in 10% formalin solution or stored frozen in liquid nitrogen.
The tissue fixed in 10% formalin solution was embedded with paraffin and cut into 4 μm to prepare a tissue sample. After removing paraffin from the tissue sample, hematoxylin-eosin staining, trichrome staining, and PAS staining were performed.
The degree of fibrosis was measured by analyzing the degree of collagen staining using the i-Solution™ software program (IMT Inc., Canada) after trichrome staining and the degree of cell senescence in tissue samples was investigated by staining lipofuscin with Sudan black B (Viegas M S, et al., European journal of histochemistry: EJH. 2007). The degree of peritoneal fibrosis was confirmed by measuring the submesothelial thickness of the peritoneal mesothelial cell layer using the NIH Image J program.

[5] = i.p. 6 times at 3-day intervals from day 5, vs PBS group

## CO[C@H]1C[C@@H]2CC[C@@H](C)[C@@](O)(O2)C(=O)C(=O)N2CCCC[C@H]2C(=O)O[C@H]([C@H](C)C[C@@H]2CC[C@H](n3cnnn3)[C@H](OC)C2)CC(=O)[C@H](C)/C=C(\C)[C@@H](O)[C@@H](OC)C(=O)[C@H](C)C[C@H](C)/C=C/C=C/C=C/1C [zotarolimus]
[1]; premature senescent HUVEC by doxorubicin, 100 nM each
  SAβG activity staining compared with rapamycin: significantly decreased than rapamycin
[1]; premature senescent HUVEC by doxorubicin, 100 nM, vs DMSO-treated group, p<0.01
  SAβG activity staining: significantly decreased
[1]; replicative senescent HUVEC, 100 nM, vs DMSO-treated group and rapamycin-treated group
  SAβG activity: significantly decreased
[2]
  cytotoxicity by LDH activity analysis: cytotoxicity specific to senescent cells did not appear
[3]
  cell growth (CCK-8): no difference in the growth
[4]; before induction vs 20th day, vs NT group
  weight gain: significantly decreased
[4]; [5]
  degree of lung fibrosis (trichrome staining): statistically significantly reduced
  degree of lung tissue damage (hematoxylin-eosin staining): statistically significantly reduced
[4]; vs PBS group
  weight: further increased compared to that of the PBS group
